The target of assay [1] is T1, McrA (Streptomyces lavendulae, UniProt P43485).
T1 sequence (P43485 1-448): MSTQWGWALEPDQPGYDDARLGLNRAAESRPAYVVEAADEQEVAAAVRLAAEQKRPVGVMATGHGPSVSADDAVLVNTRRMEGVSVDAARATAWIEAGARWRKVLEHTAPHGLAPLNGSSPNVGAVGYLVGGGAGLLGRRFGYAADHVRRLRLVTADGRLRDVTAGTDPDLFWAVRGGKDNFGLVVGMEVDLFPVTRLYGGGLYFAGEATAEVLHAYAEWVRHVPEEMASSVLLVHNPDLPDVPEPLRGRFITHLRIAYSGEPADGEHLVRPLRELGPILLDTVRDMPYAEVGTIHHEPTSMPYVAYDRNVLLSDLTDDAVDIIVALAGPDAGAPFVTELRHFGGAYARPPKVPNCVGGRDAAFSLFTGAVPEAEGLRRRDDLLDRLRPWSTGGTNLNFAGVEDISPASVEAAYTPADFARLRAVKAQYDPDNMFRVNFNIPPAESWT
Nature of the assay: thermal shift, label-free intrinsic fluorescence. Format: binding. As to conditions: read-out: dTm at 1 mM.

Assay [2] deals with T1, McrA. Description: microscale thermophoresis. Format: binding. Background: In MST a laser heats a spot of the sample, and binding alters the fluorescence response.

The values below come from publication doi:10.1101/2025.11.28.691146v1 (biorxiv, 2025).

Molecules are shown by their SMILES.

Take `CO[C@@]12[C@H](COC(N)=O)C3=C(C(=O)C(C)=C(N)C3=O)N1C[C@@H]1N[C@@H]12` [mitomycin C]: the ΔTm at 1000 µM on McrA [1] came out at 0.5 °C. Moreover, on McrA [2], the Kd (usually a measure of binding affinity in units of concentration) worked out at 15.9 ± 4.5 µM.
